Experimental data: paper PMC13352219, “Analysis of glutamine synthetase target‐site mutations and their role in endowing glufosinate‐ammonium resistance” (Pest Management Science, 2026)
Values joined by “and” are separate entries in the source; they are usually repeats but may differ in a detail not shown here. Equal entries are not always repeated. “Also recorded” adds a separate entry of the source.

Experiments:
[1] = tested on: Amaranthus palmeri GS2.2 G255D; experiment: GS enzyme inhibition assay, GS2.2 G255D; type: biochemical; conditions: full range of GFA concentrations tested (10^−8 M to 10^−2 M), listed as GFA
Procedure: (§1) GS activity was determined spectrophotometrically following the Sigma‐Aldrich enzymatic assay protocol. The reaction couples the ATP‐dependent conversion of L‐glutamate and ammonium to L‐glutamine with pyruvate kinase (PK) and L‐lactate dehydrogenase (LDH), such that oxidation of β‐NADH to β‐NAD^+ can be monitored at 340 nm. Recombinant GS from A. palmeri was expressed in E. coli, purified by affinity chromatography, and quantified by the Bradford method using bovine serum albumin as standard. […] Reaction mixtures were equilibrated to 37°C and initiated by the addition of enzyme, and the decrease in absorbance at 340 nm was recorded for 5–10 min; only the linear portion of the curve was used for activity calculations. […] Activity was calculated using an extinction coefficient for NADH of 6.22 mM^−1 cm^−1 and expressed as units per mg protein, where one unit corresponds to the formation of 1 μmol of L‐glutamine in […] at pH 7.1 and 37 °C. […] Percent inhibition was calculated relative to untreated (positive) and no‐enzyme (negative) controls. […] Resistance factors were calculated by dividing the IC₅₀ of each mutant variant by that of wild‐type GS.

[2] = tested on: Amaranthus palmeri cytosolic GS1.1 E131G; experiment: GS enzyme inhibition assay, GS1.1 E131G; type: biochemical
Procedure: as §1

[3] = tested on: Amaranthus palmeri cytosolic GS1.1 E131K; experiment: GS enzyme inhibition assay, GS1.1 E131K; type: biochemical
Procedure: as §1

[4] = tested on: Amaranthus palmeri cytosolic GS1.1 E131Q; experiment: GS enzyme inhibition assay, GS1.1 E131Q; type: biochemical
Procedure: as §1

[5] = tested on: Amaranthus palmeri cytosolic GS1.1 E131V; experiment: GS enzyme inhibition assay, GS1.1 E131V; type: biochemical
Procedure: as §1

[6] = tested on: Amaranthus palmeri cytosolic GS1.1 E192D; experiment: GS enzyme inhibition assay, GS1.1 E192D; type: biochemical
Procedure: as §1

[7] = tested on: Amaranthus palmeri cytosolic GS1.1 G245C; experiment: GS enzyme inhibition assay, GS1.1 G245C; type: biochemical
Procedure: as §1

[8] = tested on: Amaranthus palmeri cytosolic GS1.1 H249R; experiment: GS enzyme inhibition assay, GS1.1 H249R; type: biochemical
Procedure: as §1

[9] = tested on: Amaranthus palmeri cytosolic GS1.1 R291C; experiment: GS enzyme inhibition assay, GS1.1 R291C; type: biochemical
Procedure: as §1

[10] = tested on: Amaranthus palmeri cytosolic GS1.1 R291L; experiment: GS enzyme inhibition assay, GS1.1 R291L; type: biochemical
Procedure: as §1

[11] = tested on: Amaranthus palmeri cytosolic GS1.1 R291P; experiment: GS enzyme inhibition assay, GS1.1 R291P; type: biochemical
Procedure: as §1

[12] = tested on: Amaranthus palmeri cytosolic GS1.1 R311L; experiment: GS enzyme inhibition assay, GS1.1 R311L; type: biochemical
Procedure: as §1

[13] = tested on: Amaranthus palmeri cytosolic GS1.1 R311P; experiment: GS enzyme inhibition assay, GS1.1 R311P; type: biochemical
Procedure: as §1

[14] = tested on: Amaranthus palmeri cytosolic GS1.1 S59N; experiment: GS enzyme inhibition assay, GS1.1 S59N; type: biochemical
Procedure: as §1

[15] = tested on: Amaranthus palmeri cytosolic GS1.1 Y158T; experiment: GS enzyme inhibition assay, GS1.1 Y158T; type: biochemical
Procedure: as §1

[16] = tested on: Amaranthus palmeri cytosolic GS1.1 G160T; experiment: GS enzyme inhibition assay, GS1.1 G160T; type: biochemical
Procedure: as §1

[17] = tested on: Amaranthus palmeri cytosolic GS1.1 V161N; experiment: GS enzyme inhibition assay, GS1.1 V161N; type: biochemical
Procedure: as §1

[18] = tested on: Amaranthus palmeri cytosolic GS1.1 V161S; experiment: GS enzyme inhibition assay, GS1.1 V161S; type: biochemical
Procedure: as §1

[19] = tested on: Amaranthus palmeri cytosolic GS1.1 K165V; experiment: GS enzyme inhibition assay, GS1.1 K165V; type: biochemical
Procedure: as §1

[20] = tested on: Amaranthus palmeri cytosolic GS1.1 S174E; experiment: GS enzyme inhibition assay, GS1.1 S174E; type: biochemical
Procedure: as §1

[21] = tested on: Amaranthus palmeri cytosolic GS1.1 K177L; experiment: GS enzyme inhibition assay, GS1.1 K177L; type: biochemical
Procedure: as §1

[22] = tested on: Amaranthus palmeri cytosolic GS1.1 A309Y; experiment: GS enzyme inhibition assay, GS1.1 A309Y; type: biochemical
Procedure: as §1

[23] = tested on: Amaranthus palmeri cytosolic GS1.1 R316A; experiment: GS enzyme inhibition assay, GS1.1 R316A; type: biochemical
Procedure: as §1

[24] = tested on: Amaranthus palmeri cytosolic GS1.1 R316E; experiment: GS enzyme inhibition assay, GS1.1 R316E; type: biochemical
Procedure: as §1

[25] = tested on: A. palmeri population from Arkansas (CCR); set-up: method as in ref 16 = [16]; 16 Priess GL , Norsworthy JK , Godara N , Mauromoustakos A , Butts TR , Roberts TL et al ., Confirmation of glufosinate‐resistant palmer amaranth and response to other herbicides . Weed Technol 36 : 3; conditions: CCR population compared with susceptible standards; listed as GFA; cited from earlier work
[26] = tested on: GFA‐resistant E. indica population; set-up: method as in ref 10 = [10]; 10 Jalaludin A , Ngim J , Bakar BH and Alias Z , Preliminary findings of potentially resistant goosegrass ( Eleusine indica ) to glufosinate ammonium in Malaysia . Weed Biol Manage 10 : 256 – 260 ( 20); conditions: cited from earlier work
[27] = read-out: Glufosinate‐ammonium IC50

CP(=O)(O)CCC(N)C(=O)O (stereo not shown) [Glufosinate‐ammonium]
inhibition by GFA [1]: completely insensitive; also recorded: no measurable inhibition; also recorded: no detectable inhibition
Glufosinate‐ammonium % Inhibition at saturation 10 000 μM ([2]; 10 000 μM): 7.2%
IC50 [2, 27]: > 10000 µM
Glufosinate‐ammonium % Inhibition at saturation 10 000 μM ([3]; 10 000 μM): 0%
IC50 [3, 27]: > 10000 µM
Glufosinate‐ammonium % Inhibition at saturation 10 000 μM ([4]; 10 000 μM): 6.5%
IC50 [4, 27]: > 10000 µM
Glufosinate‐ammonium % Inhibition at saturation 10 000 μM ([5]; 10 000 μM): 6.6%
IC50 [5, 27]: > 10000 µM
Glufosinate‐ammonium % Inhibition at saturation 10 000 μM ([6]; 10 000 μM): 0%
IC50 [6, 27]: > 10000 µM
Glufosinate‐ammonium % Inhibition at saturation 10 000 μM ([7]; 10 000 μM): 0%
IC50 [7, 27]: > 10000 µM
Glufosinate‐ammonium % Inhibition at saturation 10 000 μM ([8]; 10 000 μM): 29%
IC50 [8, 27]: > 10000 µM
Glufosinate‐ammonium % Inhibition at saturation 10 000 μM ([9]; 10 000 μM): 0%
IC50 [9, 27]: > 10000 µM
Glufosinate‐ammonium % Inhibition at saturation 10 000 μM ([10]; 10 000 μM): 0%
IC50 [10, 27]: > 10000 µM
Glufosinate‐ammonium % Inhibition at saturation 10 000 μM ([11]; 10 000 μM): 0%
IC50 [11, 27]: > 10000 µM
Glufosinate‐ammonium % Inhibition at saturation 10 000 μM ([12]; 10 000 μM): 14%
IC50 [12, 27]: > 10000 µM
Glufosinate‐ammonium % Inhibition at saturation 10 000 μM ([13]; 10 000 μM): 0%
IC50 [13, 27]: > 10000 µM
Resistance index (RI) ([14]; IC50 variant / IC50 WT): 1.8
IC50 [14, 27]: 39.5 µM
Resistance index (RI) ([15]; IC50 variant / IC50 WT): 3.5
IC50 [15, 27]: 76 µM
Resistance index (RI) ([16]; IC50 variant / IC50 WT): 18.7
IC50 [16, 27]: 405 µM
Resistance index (RI) ([17]; IC50 variant / IC50 WT): 3.0
IC50 [17, 27]: 64 µM
Resistance index (RI) ([18]; IC50 variant / IC50 WT): 1.8
IC50 [18, 27]: 39 µM
Resistance index (RI) ([19]; IC50 variant / IC50 WT): 1.5
IC50 [19, 27]: 33 µM
Resistance index (RI) ([20]; IC50 variant / IC50 WT): 0.0
IC50 [20, 27]: 1 µM
Resistance index (RI) ([21]; IC50 variant / IC50 WT): 0.1
IC50 [21, 27]: 1.3 µM
Resistance index (RI) ([22]; IC50 variant / IC50 WT): 799.7
IC50 ([22]; read-out: Glufosinate‐ammonium IC50 (converted)): 17400 µM
Resistance index (RI) ([23]; IC50 variant / IC50 WT): 14.4
IC50 [23, 27]: 313 µM
Resistance index (RI) ([24]; IC50 variant / IC50 WT): 9.1
IC50 [24, 27]: 197 µM
resistance indices [25]: 5.1 and 5.9
resistance [26]: up to 20 fold
